Data on 6 compounds can be found in ChEMBL document CHEMBL1151178, “Staminane- and isopimarane-type diterpenes from Orthosiphon stamineus of Taiwan and their nitric oxide inhibitory activity” (J Nat Prod, 2004).

Structures are written as SMILES.

In this experiment the test system is J774.1. Briefly: Inhibition of LPS-induced NO production in mouse J774.1cells after 24 hrs. It is filed as functional, cell-based. Conditions: J774.1, 24 h.

The term IC50 denotes the concentration needed to halve the response being measured. On to `C=C[C@@]1(C)C[C@@H](O)[C@@H]2[C@@]3(C)C=C(OC(C)=O)C(=O)C(C)(C)[C@@H]3C[C@@H](OC(C)=O)[C@@]2(O)[C@H]1OC(C)=O`, for which inhibition was half-maximal at 119 µM (IC50).
In turn, `C=C[C@@]1(C)CC(=O)[C@H]2[C@](O)(C1=O)[C@H](OC(C)=O)C[C@H]1C(C)(C)[C@H](O)[C@H](OC(=O)c3ccccc3)[C@H](O)[C@@]12C` [ORTHOSIPHONONE C] yielded a concentration for half-maximal inhibition (IC50) of 81.8 µM. This IC50 and that of the compound before are within 1.5-fold of each other.
As for `CNC(=N)NCCC[C@H](N)C(=O)O` [TILARGININE], the figure is 35.7 µM; as for `C=C[C@H]1[C@@H](OC(=O)c2ccccc2)[C@@H]2[C@@]3(C)C=C(OC(C)=O)C(=O)C(C)(C)[C@@H]3C[C@@H](OC(C)=O)[C@@]2(O)C(=O)[C@@]1(C)O` [STAMINOL D], 92 µM; as for `C=C[C@H]1[C@@H](OC(=O)c2ccccc2)[C@H]2[C@](O)(C(=O)[C@@]1(C)O)[C@H](OC(C)=O)C[C@H]1C(C)(C)[C@H](OC(=O)c3ccccc3)[C@H](O)[C@H](OC(C)=O)[C@@]12C` [STAMINOL C], 61.1 µM.
The figure for `C=C[C@@]1(C)CC(=O)[C@H]2[C@](O)(C1=O)[C@H](OC(C)=O)C[C@H]1C(C)(C)[C@H](OC(=O)c3ccccc3)[C@H](O)[C@H](OC(=O)c3ccccc3)[C@@]12C` [ORTHOSIPHONONE D] is 35 µM.
